Among the test systems are PC-3 prostate; NCI/ADR-RES ovarian; CCRF-CEM leukemia; EKVX NSCLC; CAKI-1 renal; HT29 colon; OVCAR-8 ovarian; HS 578T breast; M14 melanoma; SF-295 CNS; LOX IMVI melanoma; DU-145 prostate; SK-MEL-28 melanoma.
Assay in all cases: inhibition of tumour cell growth, NCI panel, 48 h

Structures are written as SMILES.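 All cell lines were grown in 96-well plates and treated with compound for 48 hours. TGI denotes the concentration required for complete inhibition of growth.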

Consider `COC(=O)c1ccc2c(c1)S/C(=C/c1ccc3ccc4cccc5ccc1c3c45)S2`, for which the TGI with PC-3 prostate is greater than 100 µM; in the assay with NCI/ADR-RES ovarian, 76.2 µM; in the assay on CCRF-CEM leukemia, greater than 100 µM; in the assay on EKVX NSCLC, greater than 100 µM; with CAKI-1 renal, greater than 100 µM; in the assay on HT29 colon, greater than 100 µM. Besides, the TGI in the assay on OVCAR-8 ovarian, in the assay with HS 578T breast, in the assay with M14 melanoma, in the assay on SF-295 CNS, in the assay on LOX IMVI melanoma and in the assay on DU-145 prostate was greater than 100 µM throughout.

Regarding `CCOC(=O)C(=CNc1ccc(NC2=NCC(C)S2)cc1)C(=O)OCC` (stereo unspecified), the TGI was 62.9 µM with PC-3 prostate; 95.1 µM with NCI/ADR-RES ovarian; 1.84 µM in the assay on CCRF-CEM leukemia; greater than 100 µM with EKVX NSCLC; greater than 100 µM in the assay on CAKI-1 renal; greater than 84.2 µM with HT29 colon. The TGI was greater than 100 µM with OVCAR-8 ovarian; greater than 100 µM with SK-MEL-28 melanoma; 74.8 µM in the assay with HS 578T breast; greater than 90.7 µM in the assay with M14 melanoma; greater than 100 µM in the assay on SF-295 CNS; greater than 85.4 µM in the assay with LOX IMVI melanoma. The same compound registered a TGI with DU-145 prostate greater than 100 µM.

For `CCOP1(=O)CC(C)=C(Cl)C(O)C1` (stereo unspecified), the TGI in the assay on PC-3 prostate, in the assay on NCI/ADR-RES ovarian, with CCRF-CEM leukemia, in the assay on EKVX NSCLC, with CAKI-1 renal and in the assay with HT29 colon was greater than 100 µM each time. Moreover, the TGI in the assay with OVCAR-8 ovarian, in the assay on SK-MEL-28 melanoma, in the assay with HS 578T breast, in the assay on M14 melanoma, in the assay on SF-295 CNS and in the assay with LOX IMVI melanoma was greater than 100 µM each time. Further, the TGI in the assay on DU-145 prostate was greater than 100 µM.

Regarding `CC1=NN(c2nc(N)nc(/C(C#N)=C\c3csc([N+](=O)[O-])c3)n2)C(C)(C)C1`, the TGI in the assay on PC-3 prostate was 41.5 µM; in the assay on NCI/ADR-RES ovarian it was 70.3 µM; in the assay with CCRF-CEM leukemia it was greater than 100 µM; in the assay with EKVX NSCLC, 90.1 µM; with CAKI-1 renal, greater than 100 µM; with HT29 colon it was greater than 100 µM. Further, the TGI is 64.7 µM in the assay with OVCAR-8 ovarian; greater than 100 µM with SK-MEL-28 melanoma; 54.9 µM in the assay on HS 578T breast; greater than 100 µM in the assay with M14 melanoma; greater than 100 µM in the assay on SF-295 CNS; greater than 100 µM with LOX IMVI melanoma. This compound came in with a TGI in the assay with DU-145 prostate greater than 100 µM.

As to `O=[N+]([O-])/C(C(Cl)=C(Cl)Cl)=C(/Cl)SCc1ccccc1`, the TGI amounted to 31.4 µM in the assay with PC-3 prostate; 3.62 µM with NCI/ADR-RES ovarian; 0.448 µM in the assay on CCRF-CEM leukemia; 40.1 µM in the assay with EKVX NSCLC; 12.5 µM in the assay on CAKI-1 renal; 27.9 µM in the assay with HT29 colon. Besides, the TGI in the assay with OVCAR-8 ovarian turned out to be 3.04 µM; in the assay on SK-MEL-28 melanoma it was 20.8 µM; in the assay on HS 578T breast, 9.67 µM; in the assay on M14 melanoma, 3.58 µM; in the assay with SF-295 CNS it was 69.1 µM; in the assay with LOX IMVI melanoma it was 23.4 µM. Besides, the TGI with DU-145 prostate was 32.5 µM.

As for `O=[N+]([O-])c1ccc(C(=S)Nc2ccccc2)o1`, the TGI in the assay on PC-3 prostate came out at 4.63 µM; with NCI/ADR-RES ovarian it was 9.4 µM; with CCRF-CEM leukemia it was 11.4 µM; in the assay on EKVX NSCLC, 12.5 µM; in the assay on CAKI-1 renal, 13.9 µM; in the assay with HT29 colon, 5.86 µM. Also, the TGI with OVCAR-8 ovarian stood at 10.6 µM; in the assay with SK-MEL-28 melanoma, 19.3 µM; in the assay with HS 578T breast, 32.7 µM; in the assay on M14 melanoma, 14 µM; in the assay on SF-295 CNS, 15.5 µM; in the assay with LOX IMVI melanoma, 8.6 µM. Further, the TGI in the assay on DU-145 prostate is 19.9 µM.

In the case of `[N-]=[N+]=NI1OC(=O)c2ccccc21`, the TGI with PC-3 prostate is greater than 100 µM; with NCI/ADR-RES ovarian, greater than 100 µM; in the assay with CCRF-CEM leukemia, greater than 100 µM; with EKVX NSCLC, greater than 100 µM; in the assay on CAKI-1 renal, 46.9 µM; with HT29 colon, greater than 100 µM. For the same compound, the TGI in the assay on OVCAR-8 ovarian, with SK-MEL-28 melanoma, in the assay on HS 578T breast, in the assay with M14 melanoma, in the assay with SF-295 CNS and in the assay on LOX IMVI melanoma was greater than 100 µM throughout. In addition, in the assay with DU-145 prostate, the TGI is greater than 100 µM.

On to `CC1(C)OC(=S)N(c2ccccc2)C12C=Cc1ccccc1O2` (stereo unspecified), for which the TGI in the assay with PC-3 prostate, in the assay with NCI/ADR-RES ovarian, in the assay on CCRF-CEM leukemia, with EKVX NSCLC, with CAKI-1 renal and with HT29 colon was greater than 100 µM in each case. Also, the TGI with OVCAR-8 ovarian, with SK-MEL-28 melanoma, in the assay with HS 578T breast, in the assay on M14 melanoma, with SF-295 CNS and with LOX IMVI melanoma was greater than 100 µM each time. Also, in the assay with DU-145 prostate, the TGI was greater than 100 µM.

Consider `COC(=O)[C@]1(NC(=O)c2ccccc2)C[C@H]1C=O`, for which the TGI in the assay with PC-3 prostate is greater than 100 µM; with NCI/ADR-RES ovarian, greater than 100 µM; with CCRF-CEM leukemia, 51.5 µM; with EKVX NSCLC, greater than 100 µM; in the assay with CAKI-1 renal, greater than 100 µM; in the assay on HT29 colon it was greater than 100 µM. In addition, the TGI with OVCAR-8 ovarian, in the assay with SK-MEL-28 melanoma, in the assay with HS 578T breast, with M14 melanoma, with SF-295 CNS and in the assay with LOX IMVI melanoma was greater than 100 µM in each case. Further, in the assay with DU-145 prostate, the TGI was greater than 100 µM.

`NC(=O)C(=CNC(=S)Nc1ccccc1)C(N)=O`: the TGI with PC-3 prostate, with NCI/ADR-RES ovarian, in the assay on CCRF-CEM leukemia, in the assay on EKVX NSCLC, in the assay with CAKI-1 renal and in the assay with HT29 colon was greater than 100 µM throughout. Also, the TGI with OVCAR-8 ovarian, in the assay with SK-MEL-28 melanoma, in the assay with HS 578T breast, with M14 melanoma, in the assay on SF-295 CNS and in the assay on LOX IMVI melanoma was greater than 100 µM in each case. Besides, the TGI in the assay on DU-145 prostate is greater than 100 µM.

Regarding `Cc1nc2ccc(C(F)(F)F)cc2nc1NCc1ccc(Cl)c(Cl)c1`, the TGI in the assay on PC-3 prostate was found to be 25.6 µM; with NCI/ADR-RES ovarian, 47.6 µM; in the assay with CCRF-CEM leukemia, 36.6 µM; with EKVX NSCLC it was 27.4 µM; in the assay with CAKI-1 renal, 33.8 µM; in the assay on HT29 colon, 28.2 µM. Also, the TGI in the assay on OVCAR-8 ovarian was 33.2 µM; with SK-MEL-28 melanoma, 33.9 µM; in the assay on HS 578T breast, 45.5 µM; in the assay on SF-295 CNS, 32.2 µM; with LOX IMVI melanoma, 29.6 µM; in the assay on DU-145 prostate it was 31.8 µM.

Values taken from PubChem BioAssay (NCI).
